N=C(Nc1ccccc1)Nc1ccccc1
solubility (mole fraction)
Details	in acetone	in acetonitrile	in ethanol	in ethyl acetate	in isobutanol	in n-butanol	in n-propanol	in toluene
273.15 K	0.0433	0.00828	0.0144	0.0278	0.0124	0.018	0.0159	0.00132
275.65 K	0.0468	0.00909	0.0156	0.03	0.0135	0.0194	0.0174	0.00154
278.15 K	0.0508	0.0101	0.017	0.0325	0.0147	0.021	0.0189	0.00172
280.65 K	0.0554	0.0111	0.0184	0.0347	0.016	0.0227	0.0204	0.00195
283.15 K	0.0599	0.0122	0.0199	0.0372	0.0176	0.0245	0.0222	0.00219
285.65 K	0.0648	0.0134	0.0217	0.0401	0.0189	0.0266	0.0238	0.00249
288.15 K	0.07	0.0147	0.0235	0.0435	0.0208	0.0286	0.0259	0.00282
290.65 K	0.0751	0.0161	0.0253	0.0463	0.0224	0.0306	0.0278	0.00316
293.15 K	0.0802	0.0179	0.0273	0.0496	0.0244	0.0329	0.0301	0.00354
295.65 K	0.0862	0.0197	0.0292	0.053	0.0265	0.0352	0.0324	0.00389
298.15 K	0.0928	0.0214	0.0315	0.0566	0.0286	0.0377	0.035	0.00432
300.65 K	0.0993	0.0234	0.0337	0.0603	0.0311	0.0405	0.0379	0.00476
303.15 K	0.106	0.0254	0.0363	0.0641	0.0333	0.0431	0.0406	0.00528
305.65 K	0.113	0.0278	0.039	0.0678	0.0359	0.0462	0.0435	0.00584
308.15 K	0.12	0.0303	0.0419	0.0719	0.0384	0.0494	0.0465	0.00641
310.65 K	0.128	0.0331	0.0448	0.0763	0.0412	0.0527	0.0499	0.00709
313.15 K	0.137	0.036	0.0483	0.0814	0.0446	0.0562	0.0537	0.00771

Reference: BigSolDB 2.1
